In article PMC8916850, “Preparation of Spice Extracts: Evaluation of Their Phytochemical, Antioxidant, Antityrosinase, and Anti-α-Glucosidase Properties Exploring Their Mechanism of Enzyme Inhibition with Antibrowning and Antidiabetic Studies In Vivo” (BioMed Research International, 2022) one finds MeOH data, which are given here for 1 molecule.

Structures are written as SMILES.

The target of the test is T1, Mushroom tyrosinase.
T1 construct: gene PPO1
The test is described as follows: dopachrome formation, absorbance at […] nm. The test is classed as biochemical. The following applies: L-DOPA 0.85 mM, phosphate buffer 20 mM pH 6.8, 37 °C; 10 min preincubation; methods name kojic acid as the standard, table and text name hydroquinone.

The molecule `Oc1ccc(O)cc1` [hydroquinone] registered a MeOH of 131.34 ± 9.82 µg/mL.
